According to ChEMBL document CHEMBL5678818, “Discovery of potent SOS1 inhibitors that block RAS activation via disruption of the RAS-SOS1 interaction” (Proc Natl Acad Sci U S A, 2019):

Assays:
[1] = system: Receptor-type tyrosine-protein kinase FLT3 (Homo sapiens), P36888 [D835V]; assay: Inhibition of FLT3 D835V mutant (unknown origin) assessed as residual activity at 1000 nM by KINOMEscan analysis relative to control
[2] = molecular target: Cyclin-dependent kinase-like 1 (Homo sapiens) (UniProt Q00532); assay: Inhibition of CDKL1 (unknown origin) assessed as residual activity at 100 nM by KINOMEscan analysis relative to control
[3] = molecular target: T1, Myosin-IIIb (Homo sapiens) (UniProt Q8WXR4); assay: Inhibition of MYO3B (unknown origin) assessed as residual activity at 100 nM by KINOMEscan analysis relative to control
T1 sequence (whole entry): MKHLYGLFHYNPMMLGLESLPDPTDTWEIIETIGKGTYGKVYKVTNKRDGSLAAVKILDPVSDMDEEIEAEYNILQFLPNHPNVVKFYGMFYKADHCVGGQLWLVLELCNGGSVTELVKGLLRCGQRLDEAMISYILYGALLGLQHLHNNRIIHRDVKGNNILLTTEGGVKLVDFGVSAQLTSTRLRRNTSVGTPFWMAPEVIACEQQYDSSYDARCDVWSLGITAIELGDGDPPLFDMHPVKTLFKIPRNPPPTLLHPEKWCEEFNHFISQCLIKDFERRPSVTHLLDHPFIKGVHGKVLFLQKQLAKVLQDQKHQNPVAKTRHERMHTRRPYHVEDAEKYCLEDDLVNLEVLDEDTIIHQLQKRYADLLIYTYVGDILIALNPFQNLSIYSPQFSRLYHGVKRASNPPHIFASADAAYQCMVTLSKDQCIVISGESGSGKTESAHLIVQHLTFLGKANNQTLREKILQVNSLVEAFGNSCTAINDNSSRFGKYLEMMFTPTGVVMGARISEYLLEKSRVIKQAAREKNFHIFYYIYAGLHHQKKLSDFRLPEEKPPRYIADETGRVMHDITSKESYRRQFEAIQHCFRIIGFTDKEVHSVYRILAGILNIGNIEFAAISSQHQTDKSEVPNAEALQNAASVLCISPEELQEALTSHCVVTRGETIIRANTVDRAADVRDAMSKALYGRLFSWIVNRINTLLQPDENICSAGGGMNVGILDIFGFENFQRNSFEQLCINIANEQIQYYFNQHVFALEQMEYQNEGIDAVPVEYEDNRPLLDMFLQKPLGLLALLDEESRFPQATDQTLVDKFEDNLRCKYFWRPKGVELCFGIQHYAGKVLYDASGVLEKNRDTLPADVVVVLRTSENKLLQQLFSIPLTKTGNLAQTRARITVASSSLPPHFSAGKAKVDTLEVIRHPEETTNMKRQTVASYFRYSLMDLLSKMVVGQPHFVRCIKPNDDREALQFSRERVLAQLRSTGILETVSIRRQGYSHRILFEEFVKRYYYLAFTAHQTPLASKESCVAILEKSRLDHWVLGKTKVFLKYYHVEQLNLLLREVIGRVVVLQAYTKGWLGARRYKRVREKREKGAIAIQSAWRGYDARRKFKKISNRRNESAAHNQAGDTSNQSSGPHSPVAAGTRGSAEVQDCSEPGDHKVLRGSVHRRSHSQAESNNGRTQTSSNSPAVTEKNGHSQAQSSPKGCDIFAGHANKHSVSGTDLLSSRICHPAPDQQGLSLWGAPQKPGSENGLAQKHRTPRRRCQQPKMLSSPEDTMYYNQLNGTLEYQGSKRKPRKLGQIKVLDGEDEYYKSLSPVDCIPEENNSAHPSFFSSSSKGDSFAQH

[4] = molecular target: Serine/threonine-protein kinase pim-1 (Homo sapiens) (UniProt P11309); assay: Inhibition of PIM1 (unknown origin) assessed as residual activity at 100 nM by KINOMEscan analysis relative to control
[5] = molecular target: Protein kinase C theta type (Homo sapiens) (UniProt Q04759); assay: Inhibition of PRKCQ (unknown origin) assessed as residual activity at 100 nM by KINOMEscan analysis relative to control
[6] = molecular target: T2, Mitogen-activated protein kinase kinase kinase 19 (Homo sapiens) (UniProt Q56UN5); assay: Inhibition of YSK4 (unknown origin) assessed as residual activity at 100 nM by KINOMEscan analysis relative to control
T2 sequence (whole entry): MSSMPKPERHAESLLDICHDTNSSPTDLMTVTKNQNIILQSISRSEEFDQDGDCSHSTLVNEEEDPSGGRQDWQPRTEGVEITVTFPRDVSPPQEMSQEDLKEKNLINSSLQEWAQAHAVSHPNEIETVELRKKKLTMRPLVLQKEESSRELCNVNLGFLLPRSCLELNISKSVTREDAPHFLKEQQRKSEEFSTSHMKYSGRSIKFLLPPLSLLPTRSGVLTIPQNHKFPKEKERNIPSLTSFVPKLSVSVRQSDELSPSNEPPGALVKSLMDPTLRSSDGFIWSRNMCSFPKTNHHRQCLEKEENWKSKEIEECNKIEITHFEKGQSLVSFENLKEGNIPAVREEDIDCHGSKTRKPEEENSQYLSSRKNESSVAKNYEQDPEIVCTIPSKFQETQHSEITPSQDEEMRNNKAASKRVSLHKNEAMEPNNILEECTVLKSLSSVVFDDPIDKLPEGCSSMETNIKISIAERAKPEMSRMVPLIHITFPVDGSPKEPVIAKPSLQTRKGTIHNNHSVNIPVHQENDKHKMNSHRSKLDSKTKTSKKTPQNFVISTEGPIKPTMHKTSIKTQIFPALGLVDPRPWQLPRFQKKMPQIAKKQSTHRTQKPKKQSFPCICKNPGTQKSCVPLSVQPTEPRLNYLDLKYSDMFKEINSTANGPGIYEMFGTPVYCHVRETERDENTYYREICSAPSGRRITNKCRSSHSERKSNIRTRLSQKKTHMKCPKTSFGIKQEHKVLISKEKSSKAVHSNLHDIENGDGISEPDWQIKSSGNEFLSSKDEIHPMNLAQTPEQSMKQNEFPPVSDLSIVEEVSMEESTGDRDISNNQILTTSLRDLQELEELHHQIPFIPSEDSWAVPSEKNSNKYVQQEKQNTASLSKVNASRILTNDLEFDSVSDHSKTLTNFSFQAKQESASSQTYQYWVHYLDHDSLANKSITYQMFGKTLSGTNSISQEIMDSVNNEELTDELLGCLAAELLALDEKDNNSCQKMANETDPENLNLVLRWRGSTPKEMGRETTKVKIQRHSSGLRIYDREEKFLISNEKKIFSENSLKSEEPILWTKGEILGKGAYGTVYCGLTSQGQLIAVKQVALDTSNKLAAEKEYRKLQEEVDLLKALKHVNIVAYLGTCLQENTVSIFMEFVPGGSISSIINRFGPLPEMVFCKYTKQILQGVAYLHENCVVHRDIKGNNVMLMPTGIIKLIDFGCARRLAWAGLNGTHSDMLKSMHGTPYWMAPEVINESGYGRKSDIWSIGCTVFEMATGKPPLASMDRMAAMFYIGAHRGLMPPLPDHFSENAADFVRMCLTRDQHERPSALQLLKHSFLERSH

Sequence of Protein kinase C theta type (Homo sapiens) (Q04759 whole entry, looked up): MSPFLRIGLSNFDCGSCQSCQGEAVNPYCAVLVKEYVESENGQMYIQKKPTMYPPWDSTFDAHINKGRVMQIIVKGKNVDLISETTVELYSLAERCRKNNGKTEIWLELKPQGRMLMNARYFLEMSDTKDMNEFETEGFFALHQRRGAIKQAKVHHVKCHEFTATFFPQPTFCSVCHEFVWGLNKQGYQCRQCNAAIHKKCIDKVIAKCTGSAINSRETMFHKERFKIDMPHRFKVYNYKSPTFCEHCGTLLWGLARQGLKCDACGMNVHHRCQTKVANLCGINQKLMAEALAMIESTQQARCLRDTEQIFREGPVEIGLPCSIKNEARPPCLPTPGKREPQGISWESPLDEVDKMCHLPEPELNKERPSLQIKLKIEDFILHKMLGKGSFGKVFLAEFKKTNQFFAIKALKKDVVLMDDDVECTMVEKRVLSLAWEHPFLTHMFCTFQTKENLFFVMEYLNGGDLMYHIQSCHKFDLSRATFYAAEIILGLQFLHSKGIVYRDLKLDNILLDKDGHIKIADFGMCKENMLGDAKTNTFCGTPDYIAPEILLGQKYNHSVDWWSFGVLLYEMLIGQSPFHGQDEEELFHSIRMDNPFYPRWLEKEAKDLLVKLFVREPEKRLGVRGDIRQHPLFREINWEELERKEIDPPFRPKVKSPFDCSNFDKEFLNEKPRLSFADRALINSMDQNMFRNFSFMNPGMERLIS
Sequence of Cyclin-dependent kinase-like 1 (Homo sapiens) (Q00532 whole entry): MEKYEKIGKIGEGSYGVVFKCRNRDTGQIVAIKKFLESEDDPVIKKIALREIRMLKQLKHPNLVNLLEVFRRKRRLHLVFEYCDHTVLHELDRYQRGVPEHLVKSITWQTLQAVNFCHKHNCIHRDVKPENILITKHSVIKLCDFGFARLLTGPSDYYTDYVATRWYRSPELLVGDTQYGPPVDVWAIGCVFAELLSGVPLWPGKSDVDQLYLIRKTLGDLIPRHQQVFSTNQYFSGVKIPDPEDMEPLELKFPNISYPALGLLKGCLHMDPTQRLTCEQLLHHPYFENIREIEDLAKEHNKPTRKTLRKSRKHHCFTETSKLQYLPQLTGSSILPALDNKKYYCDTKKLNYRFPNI
Sequence of Serine/threonine-protein kinase pim-1 (Homo sapiens) (P11309 whole entry, looked up): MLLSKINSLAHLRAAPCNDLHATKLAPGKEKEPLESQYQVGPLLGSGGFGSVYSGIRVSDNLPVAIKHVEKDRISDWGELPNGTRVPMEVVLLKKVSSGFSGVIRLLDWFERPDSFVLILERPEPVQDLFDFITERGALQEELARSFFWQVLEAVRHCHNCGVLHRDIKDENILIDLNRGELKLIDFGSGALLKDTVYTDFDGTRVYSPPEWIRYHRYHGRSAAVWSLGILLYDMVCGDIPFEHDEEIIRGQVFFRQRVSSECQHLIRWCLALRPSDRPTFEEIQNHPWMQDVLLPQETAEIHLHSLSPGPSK

## COc1cc2nc(C)nc(N[C@H](C)c3cccc(-c4cn[nH]c4)c3)c2cc1OC
[1]
  Activity: 100%

## COc1cc2ncnc(N[C@H](C)c3cccc4ccccc34)c2cc1OC
[2]
  Activity: 70%
[3]
  Activity: 98%
[4]
  Activity: 89%
[5]
  Activity: 100%
[6]
  Activity: 92%
